For eleven molecules, IC50 and inhibition results are on record in the Kinase Knowledgebase extract (Sharma et al. 2016).

The term IC50 denotes the midpoint of a concentration-inhibition curve. Low readings indicate greater potency in that assay, high ones weaker potency in that assay. One may read the inhibition as the share of the control response that was lost under treatment. Higher therefore signals strong suppression.

Where “and” joins values, the source holds several entries; their conditions need not be identical. Equal values may be shown once.

The target in one assay is EGFR (UniProt P00533).
EGFR, sequence (P00533 whole entry, looked up): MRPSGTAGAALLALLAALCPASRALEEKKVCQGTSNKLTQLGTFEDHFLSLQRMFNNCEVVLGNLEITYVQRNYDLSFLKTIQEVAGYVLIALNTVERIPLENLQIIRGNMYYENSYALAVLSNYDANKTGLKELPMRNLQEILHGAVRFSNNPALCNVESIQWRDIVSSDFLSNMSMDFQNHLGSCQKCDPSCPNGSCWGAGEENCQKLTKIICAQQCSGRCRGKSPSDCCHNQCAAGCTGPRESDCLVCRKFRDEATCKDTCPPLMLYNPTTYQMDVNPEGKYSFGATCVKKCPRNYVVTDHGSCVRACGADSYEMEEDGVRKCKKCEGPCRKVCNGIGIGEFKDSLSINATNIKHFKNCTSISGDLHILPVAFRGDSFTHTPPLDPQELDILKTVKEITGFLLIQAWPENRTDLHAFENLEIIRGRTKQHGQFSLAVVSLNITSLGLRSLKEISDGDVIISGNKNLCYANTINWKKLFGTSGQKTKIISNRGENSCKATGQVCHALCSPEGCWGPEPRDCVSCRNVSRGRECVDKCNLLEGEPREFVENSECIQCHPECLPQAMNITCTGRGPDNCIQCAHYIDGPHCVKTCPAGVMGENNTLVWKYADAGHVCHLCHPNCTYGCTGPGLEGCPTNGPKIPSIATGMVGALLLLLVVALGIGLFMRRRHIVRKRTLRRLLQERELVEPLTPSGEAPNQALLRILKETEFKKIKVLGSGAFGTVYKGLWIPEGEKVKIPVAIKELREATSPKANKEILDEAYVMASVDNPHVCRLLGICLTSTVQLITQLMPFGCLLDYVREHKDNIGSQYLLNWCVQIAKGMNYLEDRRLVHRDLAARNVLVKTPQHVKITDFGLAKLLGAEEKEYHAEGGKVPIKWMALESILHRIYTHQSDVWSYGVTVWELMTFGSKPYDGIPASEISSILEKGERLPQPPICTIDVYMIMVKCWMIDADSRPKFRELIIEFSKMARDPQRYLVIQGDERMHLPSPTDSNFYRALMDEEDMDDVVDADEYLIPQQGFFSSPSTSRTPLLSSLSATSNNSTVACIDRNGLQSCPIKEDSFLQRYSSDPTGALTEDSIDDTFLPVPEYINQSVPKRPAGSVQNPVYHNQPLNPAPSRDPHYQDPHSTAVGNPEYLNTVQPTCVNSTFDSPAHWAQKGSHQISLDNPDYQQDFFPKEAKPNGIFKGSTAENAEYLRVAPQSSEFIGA
Assay: not given
Conditions: not given
`O=C(c1ccc2cc[nH]c2c1)N1CCC(Cc2ccccc2)CC1` yielded an IC50 of over 500 µM. Regarding `O=C(c1ccc2[nH]ccc2c1)N1CCC(Cc2ccccc2)CC1`, the half-maximal inhibitory concentration (IC50) is over 500 µM.

For a further assay, the target named is MAPK14 (UniProt Q16539). The experiment in a line: p38 alpha Kinase Inhibition Assay.
MAPK14, sequence (Q16539 whole entry, looked up): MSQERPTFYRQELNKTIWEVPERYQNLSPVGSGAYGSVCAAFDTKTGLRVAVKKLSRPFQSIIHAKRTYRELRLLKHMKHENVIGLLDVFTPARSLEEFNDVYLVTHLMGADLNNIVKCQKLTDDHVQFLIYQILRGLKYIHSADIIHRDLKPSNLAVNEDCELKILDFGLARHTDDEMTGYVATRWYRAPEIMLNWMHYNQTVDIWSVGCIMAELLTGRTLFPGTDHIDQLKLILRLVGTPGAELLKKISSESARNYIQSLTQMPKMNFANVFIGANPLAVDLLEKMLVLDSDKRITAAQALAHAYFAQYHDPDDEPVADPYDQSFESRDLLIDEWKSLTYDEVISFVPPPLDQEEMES
Conditions: not given
The molecule `O=C(c1ccc2cc[nH]c2c1)N1CCN(Cc2ccccc2)CC1` came in with an IC50 of 4.97 to 5.52 µM. The molecule `CCNCCCn1ccc2cc(C(=O)N3CCC(Cc4ccccc4)CC3)c(Cl)cc21` showed an IC50 of 0.199 µM.

`CCNCCCn1ccc2cc(C(=O)N3CCC(Cc4ccc(F)cc4)CC3)ccc21` registered an IC50 of 0.354 µM.

Consider `O=C(c1ccc2nc[nH]c2c1)N1C2CCC1CC(Cc1ccccc1)C2` (configuration not stated), for which the IC50 came to 2.15 µM.

`O=C(c1ccc2c(ccn2C(=O)c2ccncc2)c1)N1CCC(Cc2ccccc2)CC1` showed an IC50 of 0.405 to 0.871 µM. In the case of `O=C(c1ccc2[nH]ccc2c1)N1CCC(Cc2ccccc2)CC1`, the concentration for half-maximal inhibition (IC50) was 0.15 to 0.242 µM and 0.523 to 0.577 µM. For `O=C(c1ccc2ccn(C(=O)c3ccncc3)c2c1)N1CCC(Cc2ccccc2)CC1`, the IC50 worked out at 0.505 µM. Molecule `O=C(c1ccc2c(ccn2-c2ccncc2)c1)N1CCC(Cc2ccccc2)CC1` had an IC50 of 0.8 µM.

Staying with this assay, now noted: concentration not given here.
In the case of `COc1cc2[nH]ccc2cc1C(=O)N1C2CCC1CC(Cc1ccccc1)C2` (configuration not stated), the inhibition worked out at 63%.

With `O=C(c1ccc2cc[nH]c2c1)N1CCC(Cc2ccc(F)cc2)C1` (configuration not stated), the inhibition is 51%.
